Reference: patent US6046231A, “Use of 4'-bromoflavone in a cancer chemopreventative composition and method” (The Board of Trustees of the University of Illinois, priority 1999, dated 2000)
pIC50: −log10 of the molar value. Where two headings read alike, the source gives them in different places.

Assays:
[1] = test system: quinone reductase (QR), Hepa 1c1c7 cells; assay: Quinone reductase (QR) induction in Hepa 1c1c7 cells; format: cell-based, murine; conditions: for CI, chemoprevention index (IC50/CD): 2880 min
Excerpt: This test was used because the specific activity of QR rises concomitantly with other phase II enzymes in many animal tissues in response to various chemopreventive agents. The study included natural and synthetic B-ring substituted flavones, as well as biosynthetic precursor chalcones and flavanones.
Determination of Quinone Reductase Activity in Cell Cultures. To determine the potency of inducers, Hepa 1c1c7 murine hepatoma cells as described in the Gerhauser publication were placed in 96-well plates at a density of 1×10^4 cells/ml in 200 μl of medium. After a preincubation period of 24 hr, the media were decanted and 190 μl fresh media were added to each well. Ten (10) μl test agents dissolved in 10% DMSO (final concentration of DMSO is 0.5%) with a serial 2-fold dilutions were introduced to each well, and the plates were incubated for an additional 48 hours. Specific QR activity was determined by measuring the NADPH-dependent menadiol-mediated reduction of 3-(4, 5-dimethylthiazo-2-yl)-2,5-diphenyltetrazolium bromide to blue formazan formed per mg protein per minute. Protein was determined in an identical set of test plates by staining with crystal violet. Hepa 1c1c7 cells retain many characteristics of normal issues, particularly the capacity for carcinogen activation and metabolism. They are amenable to precise control of environmental, nutritional, and hormonal factors. […] Induction of QR activity was calculated by comparing the QR specific activity of agent-treated cells with that of solvent-treated cells, and a plot of ratio was generated. CD represents the concentration required to double QR induction. Chemopreventive index (CI) is an indexing value generated by comparing CD with IC50 (concentration for 50% inhibition of cell viability) values.
Induction of Quinone Reductase in Hepa 1c1c7 Cells. […] Modification of the B-ring of chalcones, flavanones, and flavones was hypothesized to induce torsion of the B-ring, and, therefor, simulate out-of-plane distortions characteristic of polycyclic aromatic hydrocarbons, such as DMBA. Induction of QR activity was calculated by comparing the QR specific activity of agent-treated cells with the QR specific activity of solvent-treated cells, and a plot of ratios was generated. CD represents the concentration required for a double fold of induction. CI (Chemopreventive Index) is a value obtained by comparing CD with IC50 (concentration for 50% inhibition of cell viability in […]).

[2] = test system: Hepa 1c1c7 cells; assay: Hepa 1c1c7 cell viability (cytotoxicity); format: cell-based, murine; conditions: Mus musculus
[3] = target: T1, cytochrome P4501A1 (Rattus norvegicus, UniProt P00185); assay: biochemical
T1 sequence (P00185 1-524): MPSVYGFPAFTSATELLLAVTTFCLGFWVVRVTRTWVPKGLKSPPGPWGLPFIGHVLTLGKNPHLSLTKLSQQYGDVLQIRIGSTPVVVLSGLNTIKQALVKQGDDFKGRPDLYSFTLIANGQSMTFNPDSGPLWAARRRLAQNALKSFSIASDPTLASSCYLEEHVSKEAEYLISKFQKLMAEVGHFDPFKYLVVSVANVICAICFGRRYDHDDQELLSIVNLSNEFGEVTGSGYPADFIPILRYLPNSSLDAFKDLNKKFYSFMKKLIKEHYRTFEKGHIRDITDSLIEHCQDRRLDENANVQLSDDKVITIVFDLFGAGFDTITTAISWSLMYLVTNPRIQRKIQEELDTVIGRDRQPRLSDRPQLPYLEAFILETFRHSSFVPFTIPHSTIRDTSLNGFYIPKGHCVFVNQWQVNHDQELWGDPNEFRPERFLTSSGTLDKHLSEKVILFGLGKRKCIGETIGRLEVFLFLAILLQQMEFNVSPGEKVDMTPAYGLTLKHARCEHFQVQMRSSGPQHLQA
Description: Inhibition of DMBA-induced Cytochrome P4501A1 Activity. Female Sprague Dawley rats (43 days of age) were treated with DMBA (i.g.), and liver microsomes were isolated through differential centrifugation. Cytochrome P4501A1 activity was monitored by assessing EROD activity. Briefly, 200 μl of microsomal protein (2 mg/ml) were added to a reaction mixture containing 640 μl of 0.05 M Tris-HCl buffer (pH 7.5), 100 μl of BSA (10 mg/ml in Tris buffer), 20 μl of 0.25 M MgCl2, 40 μl of cofactor solution (0.3282 g of NADP and 1.417 g of glucose 6-phosphate in 40 ml of 1.15% KCl), 2.5 units of glucose 6-phosphate dehydrogenase, 10 μl of substrate (1 mg of ethoxyresorufin in 10 ml of methanol) and 10 μl of various concentrations of 4'-BF in DMSO (α-naphthoflavone as positive control; DMSO as negative control). After incubating at 37° C. for 4 min, the reactions were terminated by the addition of 2 ml of methanol. Samples were then centrifuged for 20 min at 2,000×g. and 200 μl of the supernatant fractions were transferred to 96-well plates and read on a spectrofluorimeter (500 nm excitation and 585 nm emission). Assays were conducted in triplicate and the percent of inhibition was calculated as: [1-(sample A-blank)/(DMSO A-blank)]×100.

[4] = Mus musculus, Hepa-1c1c7, 48 h, Hepa 1c1c7 cells, 48 h, read-out: CD, concentration to double the specific activity of QR
[5] = Hepa-1c1c7, Hepa 1c1c7 cells, read-out: IC50, concentration for 50% inhibition of cell viability
[6] = Hepa 1c1c7 cells, 48 h, read-out: CD, concentration to double the specific activity of QR
[7] = Mus musculus, Hepa-1c1c7, 48 h, read-out: CD, concentration to double the specific activity of QR, Hepa 1c1c7 cells, 48 h
[8] = Hepa-1c1c7, read-out: IC50, concentration for 50% inhibition of cell viability

Structure (SMILES)	CI, chemoprevention index (IC50/CD) [1]	pIC50 [3]	Cq ([1]; Hepa 1c1c7 cells)	EC (2-fold) [1, 4] [µM]	pIC50 [2, 5]	EC (2-fold) [1, 6] [µM]	EC (2-fold) [1, 7] [µM]	pIC50 [2, 8]	EC (2-fold) ([1]; Hepa 1c1c7 cells, 48 h, listed as 3'-chloroflavone, read-out: CD, concentration to double the specific activity of QR) [µM]
O=C1CC(c2cccc3ccccc23)Oc2ccccc21 (centres unmarked)	24	–	8.6 µM	1.8	4.37	–	–	–	–
COc1ccccc1C1CC(=O)c2ccccc2O1 (centres unmarked) [2'-Methoxyflavanone]	> 125	–	6.9 µM	0.63	< 4.10	–	–	–	–
COc1ccccc1-c1cc(=O)c2ccccc2o1 [2'-methoxyflavone]	–	–	–	0.01 to 1	–	–	–	–	–
O=C(/C=C/c1ccccc1Br)c1ccccc1O [2-Bromo-2'-hydroxychalcone]	21	–	2.0 µM	–	–	–	0.53	4.96	–
O=c1cc(-c2cccc(Br)c2)oc2ccccc12 [3'-Bromoflavone]	32	–	4.4 µM	0.1	5.49	–	–	–	–
O=c1cc(-c2cccc(Cl)c2)oc2ccccc12 [3'-Chloroflavone]	> 40	–	toxic	–	–	< 0.58	–	4.64	0.27
O=c1cc(-c2ccc(Cl)cc2)oc2ccccc12 [4'-Chloroflavone]	> 5000	–	0.66 µM	–	–	0.02	0.016	< 4.11	–
O=C(/C=C/c1ccc(Br)cc1)c1ccccc1O [4-Bromo-2'-hydroxychalcone]	4	–	66 µM	–	–	–	18	4.18	–
O=C(/C=C/c1ccccc1)c1ccccc1 [Chalcone, reference compound]	–	–	–	–	4.48	–	–	–	–
O=c1cc(-c2ccccc2)oc2c1ccc1ccccc12 [a-naphthoflavone, α-naphthoflavone, reference compound]	–	7.05	–	–	–	–	–	–	–

Further lines, with some results ahead:

CI, chemoprevention index (IC50/CD) [1]	pIC50 [3]	Structure (SMILES)	Cq ([1]; Hepa 1c1c7 cells)	EC (2-fold) [1, 4] [µM]	pIC50 [2, 5]	EC (2-fold) [1, 6] [µM]	EC (2-fold) [1, 7] [µM]	pIC50 [2, 8]	EC (2-fold) ([1]; Hepa 1c1c7 cells, 48 h, listed as 3'-chloroflavone, read-out: CD, concentration to double the specific activity of QR) [µM]
104	–	O=c1cc(-c2ccccc2F)oc2ccccc12 [2'-Fluoroflavone]	10 µM	0.8	< 4.08	0.80	–	–	–
26	–	COc1cccc(OC)c1/C=C/C(=O)c1ccccc1O [2'-Hydroxy-2,6-dimethoxychalcone]	3.7 µM	0.53	4.85	0.54	–	–	–
55	–	COc1ccccc1/C=C/C(=O)c1ccccc1O [2'-Hydroxy-2-methoxychalcone]	1.8 µM	0.31	4.77	–	–	–	–
54	–	Cc1ccccc1/C=C/C(=O)c1ccccc1O [2'-Hydroxy-2-methylchalcone]	9.0 µM	0.67	4.44	–	–	–	–
37	–	O=C(/C=C/c1ccccc1[N+](=O)[O-])c1ccccc1O [2'-Hydroxy-2-nitrochalcone]	3.6 µM	0.3	4.96	–	–	–	–
> 23	–	O=C(/C=C/c1cccc(C(F)(F)F)c1)c1ccccc1O [2'-Hydroxy-3-trifluoromethylchalcone]	0.55 µM	< 0.55	4.89	–	–	–	–
> 100	–	O=C(/C=C/c1ccc(C(F)(F)F)cc1)c1ccccc1O [2'-Hydroxy-4-trifluoromethylchalcone]	1 µM	< 0.55	4.26	–	–	–	–
81	–	Cc1ccccc1C1CC(=O)c2ccccc2O1 (centres unmarked) [2'-Methylflavanone]	6.8 µM	1	4.09	1.00	–	–	–
63	–	O=c1cc(-c2cccc(F)c2)oc2ccccc12 [3'-Fluoroflavone]	1.24 µM	0.67	4.38	–	–	–	–
16	–	O=C(/C=C/c1cccc(Br)c1)c1ccccc1O [3-Bromo-2'-hydroxychalcone]	8.2 µM	1.3	4.68	–	–	–	–
27	–	O=C1CC(c2ccc(Br)cc2)Oc2ccccc21 (centres unmarked) [4'-Bromoflavanone]	11 µM	2.3	4.20	–	–	–	–
> 24	–	O=c1cc(-c2ccc(F)cc2)oc2ccccc12 [4'-Fluoroflavone]	32 µM	3.4	< 4.08	–	–	–	–
3000	–	O=c1cc(-c2ccc(C(F)(F)F)cc2)oc2ccccc12 [4'-Trifluoromethylflavone]	0.1 µM	0.03	4.05	–	–	–	–
42	–	O=c1cc(-c2ccccc2)oc2ccccc12 [Flavone]	8.3 µM	2.5	3.97	–	–	–	–
